Consider two molecules from patent publication US11312713B2, “Imidazo[4,5-C]quinoline derivatives as LRRK2 inhibitors” (Pfizer Inc., priority 2017, dated 2022).

Data set [1] is described as follows: Intrinsic clearance (CLint) in human liver microsomes. It counts as in vitro ADME. The settings on record: for Rate of metabolite / intrinsic clearance in comparison to undeuterated form (95A) / rate of metabolite formation in comparison to undeuterated form (95A): human liver microsomes; for microsomal CLint at 1 μM / half-life at 1 μM: human, liver microsomes, pH 7.4, human liver microsomes; for half-life at 1 μM: read-out: T½. As to the method: Intrinsic Clearance (CLint) in Human Liver Microsomes
(§1) The final reaction volume (500 μL) contained 0.003% DMSO, 0.5% acetonitrile. The incubations were conducted at 37° C. and aliquots (50 μL) were removed at 0, 5, 10, 15, 20, 30, 45 and 60 minutes and quenched by addition to cold acetonitrile containing mass spectrometry (MS) internal standard (200 μL). Quenched incubations were vortex for 1 minute followed by centrifugation at 3000 rpm for 5 minutes at room temperature (Allegra X-12R, Beckman Coulter, Fullerton, Calif.). The supernatant (150 μL) was then removed and added to a 96-deep well injection plate containing 150 μL of water with 0.1% formic acid (v/v), the plates were capped and vortex for 1 minute and subsequently analyzed using LC-MS/MS as described below. Control incubations were prepared similar without adding the NADPH cofactor to monitor for any non-CYP/FMO metabolism. Discrete standard curves (0.5-2000 nM) were prepared, processed, and analyzed as described above.
(§2) Disappearance of substrates 95A and 96 and formation of metabolites 95 or 96B were determined using an LC-MS/MS system which is comprised of an AB Sciex 6500 triple quadrupole mass spectrometer equipped with an electrospray source (AB Sciex, Framingham, Mass.) and Agilent Technologies Infinity 1290 (Santa Clara, Calif.). A binary gradient was employed with a flow rate of 0.500 mL/min, using 0.1% formic acid in water as the aqueous mobile phase (solvent A) and 0.1% formic acid in acetonitrile (solvent B) as the organic phase. The LC gradient profile begins at 5% solvent B which was ramped to 98% B over 2 minutes and then held for 0.20 minutes and returned to initial conditions (5% B) over 0.5 minutes, for a total run time of 3.00 minutes. The analytical column used was a Phenomenex Kinetex 2.6 μm, 2.1×50 mm (Phenomenex, Torrance, Calif.), with an injection volume of 10 μL. The mass spectrometer was run under positive mode with the source temperature set to 500° C., ionization voltage set to 4.5 kV. The following MS/MS transitions were utilized: for substrate 95A (408→310), substrate 96 (411→313), metabolite 95 (424→326), and metabolite 96B (426→328). Analytes were quantified using Analyst software, version 1.6.2 or earlier (AB Sciex, Framingham, Mass.).
In general terms: Microsomes from liver hold many membrane-bound enzymes, among them those of drug oxidation.

Data set [2] can be described thus: Intrinsic clearance (CLint) in cynomolgus monkey liver microsomes. It counts as in vitro ADME. The settings on record: for Rate of metabolite / intrinsic clearance in comparison to undeuterated form (95A) / rate of metabolite formation in comparison to undeuterated form (95A): monkey liver microsomes; for microsomal CLint at 1 μM / half-life at 1 μM: monkey, liver microsomes, pH 7.4, monkey liver microsomes; for half-life at 1 μM: read-out: T½. As to the method: Intrinsic Clearance (CLint) in Cynomolgus Monkey Liver Microsomes
as §1, with “Incubations (in duplicate) contained either 95A or 96, or both 95A and 96 at final concentrations of 1 μM, pooled cynomolgus monkey liver microsomes (Xenotech, LLC, Lenexa, Kans., 0.25 μM CYP protein equivalent to 0.21 mg/mL protein concentration), NADPH (1.3 mM), magnesium chloride (3.3 mM) and potassium phosphate buffer (100 mM, pH 7.4). The final” for “The final”, “incubations were vortexed for 1” for “incubations were vortex for 1”, “formic acid (v/v). The plates were” for “formic acid (v/v), the plates were”, “capped and vortexed for 1” for “capped and vortex for 1”
as §2

Data set [3] in a line: Human liver microsomes enzyme kinetics (metabolite formation). The format is in vitro ADME. Here is the method: Human Liver Microsomes Enzyme Kinetics
Incubations (in triplicate) contained 95A or 96 (1-1000 μM, final concentrations), pooled human liver microsomes (BD Biosciences, Bedford, Mass., 0.25 protein concentration, NADPH (1.3 mM), magnesium chrolide (5 mM) and potassium phosphate buffer (100 mM, pH 7.4). The final reaction volume (100 μL) contained 1 acetonitrile. The incubations were conducted at 37° C. At time points of 15 minutes for 95A, or 30 min for 96, 50 μL of incubate was quenched by the addition of 200 μL of cold acetonitrile containing 0.1% formic acid (v/v) and mass spectrometry (MS) internal standard. Quenched samples were vortexed for 1 minute followed by centrifugation at 3000 rpm for 5 minutes at room temperature (Allegra X-12R, Beckman Coulter, Fullerton, Calif.). The supernatant (150 μL) was placed into a clean injection sample block and dried down under nitrogen gas, then reconstituted with 150 μL of water containing 0.1% formic acid (v/v). The plates were capped and vortexed for 1 minute and subsequently analyzed using LC-MS/MS as described below. Formation of metabolites 95 (from substrate 95A) and 96B (from substrate 96) was quantitated using a standard curve (0.5-5000 nM) generated using a synthetic standard of substrate 95. Standard curve samples were prepared, processed, and analyzed as described above.
as §2

For data set [4], the target named is mutant G2019S LRRK2 (Homo sapiens (Human), UniProt Q5S007, G2019S). The data set can be described thus: LRRK2 kinase assay (LanthaScreen), G2019S mutant. It counts as biochemical. The settings on record: G2019S mutant LRRK2; LanthaScreen, LRRKtide substrate; read-out: LRRK2, G2019S IC50. In outline: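 GST-tagged truncated enzyme (2 μg/mL) phosphorylates 100 nM fluorescein-LRRKtide with 1 mM ATP in HEPES pH 7.5, 3 mM MgCl2, DTT, Brij35; 30 min, room temperature, compound dose response top 3 μM. Stopped with EDTA; phospho-ERM detected by terbium anti-phospho-ERM TR-FRET; identical conditions for both enzymes.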
mutant G2019S LRRK2, sequence (Q5S007 whole entry G2019S, the tested form may be a part): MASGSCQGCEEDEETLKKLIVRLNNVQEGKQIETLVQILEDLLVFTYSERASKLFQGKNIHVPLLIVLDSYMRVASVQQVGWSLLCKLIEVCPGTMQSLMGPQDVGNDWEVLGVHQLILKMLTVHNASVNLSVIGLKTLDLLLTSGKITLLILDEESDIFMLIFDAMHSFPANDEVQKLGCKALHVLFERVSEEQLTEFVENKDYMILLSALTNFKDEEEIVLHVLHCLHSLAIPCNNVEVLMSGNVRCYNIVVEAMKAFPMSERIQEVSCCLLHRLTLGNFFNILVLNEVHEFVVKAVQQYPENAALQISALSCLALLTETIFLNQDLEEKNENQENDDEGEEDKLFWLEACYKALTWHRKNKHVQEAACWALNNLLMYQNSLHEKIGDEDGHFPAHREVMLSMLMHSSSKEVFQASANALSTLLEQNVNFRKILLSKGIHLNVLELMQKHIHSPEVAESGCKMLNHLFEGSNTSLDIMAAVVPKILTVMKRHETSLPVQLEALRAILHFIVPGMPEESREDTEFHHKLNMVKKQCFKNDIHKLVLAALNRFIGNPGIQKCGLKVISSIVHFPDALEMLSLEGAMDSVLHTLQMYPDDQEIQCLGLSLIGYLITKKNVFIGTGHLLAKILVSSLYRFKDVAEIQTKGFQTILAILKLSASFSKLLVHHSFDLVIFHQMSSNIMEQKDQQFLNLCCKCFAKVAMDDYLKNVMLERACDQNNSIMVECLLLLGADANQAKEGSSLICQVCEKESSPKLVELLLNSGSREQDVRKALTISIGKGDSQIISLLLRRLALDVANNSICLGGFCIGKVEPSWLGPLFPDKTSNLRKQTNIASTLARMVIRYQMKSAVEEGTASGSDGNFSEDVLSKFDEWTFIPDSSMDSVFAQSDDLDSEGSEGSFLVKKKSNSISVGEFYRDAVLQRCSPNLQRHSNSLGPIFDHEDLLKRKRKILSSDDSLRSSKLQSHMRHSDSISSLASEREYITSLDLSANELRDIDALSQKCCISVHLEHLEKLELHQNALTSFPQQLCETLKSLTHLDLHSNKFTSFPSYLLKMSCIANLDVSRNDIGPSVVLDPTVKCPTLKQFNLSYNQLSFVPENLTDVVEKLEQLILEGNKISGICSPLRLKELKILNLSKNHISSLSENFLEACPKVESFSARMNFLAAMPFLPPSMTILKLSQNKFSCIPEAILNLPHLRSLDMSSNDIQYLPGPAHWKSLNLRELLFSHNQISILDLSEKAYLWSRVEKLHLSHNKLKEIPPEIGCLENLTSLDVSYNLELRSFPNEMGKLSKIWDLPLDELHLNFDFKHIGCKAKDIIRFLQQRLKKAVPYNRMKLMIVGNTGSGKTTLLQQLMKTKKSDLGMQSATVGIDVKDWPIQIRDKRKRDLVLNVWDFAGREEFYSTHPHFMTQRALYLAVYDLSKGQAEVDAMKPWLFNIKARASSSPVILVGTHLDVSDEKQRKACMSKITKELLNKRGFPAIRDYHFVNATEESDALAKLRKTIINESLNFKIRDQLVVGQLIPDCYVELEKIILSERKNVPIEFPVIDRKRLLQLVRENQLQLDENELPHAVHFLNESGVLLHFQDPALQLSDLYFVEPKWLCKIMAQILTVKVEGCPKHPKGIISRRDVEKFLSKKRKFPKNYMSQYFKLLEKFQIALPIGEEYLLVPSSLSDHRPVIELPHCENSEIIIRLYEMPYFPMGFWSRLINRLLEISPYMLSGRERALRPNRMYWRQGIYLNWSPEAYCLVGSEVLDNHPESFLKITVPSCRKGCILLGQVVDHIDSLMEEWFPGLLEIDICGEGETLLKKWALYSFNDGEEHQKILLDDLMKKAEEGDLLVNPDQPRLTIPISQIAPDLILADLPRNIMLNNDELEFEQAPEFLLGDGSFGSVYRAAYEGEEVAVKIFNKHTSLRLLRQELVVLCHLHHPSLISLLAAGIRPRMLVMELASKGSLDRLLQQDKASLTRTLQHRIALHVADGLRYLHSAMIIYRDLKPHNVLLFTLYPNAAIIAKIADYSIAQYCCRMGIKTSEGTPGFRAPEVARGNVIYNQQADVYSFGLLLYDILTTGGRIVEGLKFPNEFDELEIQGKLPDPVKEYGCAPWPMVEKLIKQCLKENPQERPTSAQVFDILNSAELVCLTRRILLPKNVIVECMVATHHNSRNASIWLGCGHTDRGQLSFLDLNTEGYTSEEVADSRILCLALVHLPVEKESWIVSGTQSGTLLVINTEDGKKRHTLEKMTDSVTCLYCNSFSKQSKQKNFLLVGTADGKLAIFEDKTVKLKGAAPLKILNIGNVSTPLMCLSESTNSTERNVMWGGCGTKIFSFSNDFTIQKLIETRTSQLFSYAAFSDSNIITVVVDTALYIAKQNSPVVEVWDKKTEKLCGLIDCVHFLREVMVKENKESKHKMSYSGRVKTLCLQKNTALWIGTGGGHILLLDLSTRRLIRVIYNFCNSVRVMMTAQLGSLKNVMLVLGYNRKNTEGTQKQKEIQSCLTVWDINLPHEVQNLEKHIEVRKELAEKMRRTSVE

The mark [5] stands for this setting: combined substrates 95A and 96 - competition.
Setting [6] is: combined substrates (competition).
The mark [7] stands for this setting: individual substrates, metabolite 95 from 95A, 96B from 96.
[8] abbreviates: formation of metabolite 95 (from 95A) or 96B (from 96), human liver microsomes.

Regarding `[2H]C([2H])([2H])c1cnc(Cc2nc3cnc4ccc(Cl)cc4c3n2[C@@H]2CCO[C@H](C)C2)cn1` [Example 96, 8-chloro-2-{[5-(^2H3)methylpyrazin-2-yl]methyl}-1-[(2R,4R)-2-methyltetrahydro-2H-pyran-4-yl]-1H-imidazo[4,5-c]quinoline], the Rate of metabolite in data set [1] (setting [5]) stood at 1.65 nmol/min/mg; in data set [1] (setting [7]) it was 1.10 nmol/min/mg; in data set [2] (setting [5]), 25.19 nmol/min/mg; in data set [2] (setting [7]) it was 22.83 nmol/min/mg. The “intrinsic clearance in comparison to undeuterated form (95A)” value in data set [1] (setting [6]), in data set [1] (individual substrates), in data set [2] (setting [6]), in data set [2] (individual substrates) and in data set [3] (human liver microsomes enzyme kinetics) was “decreased intrinsic clearance” throughout. Besides, the “rate of metabolite formation in comparison to undeuterated form (95A)” value in data set [1] (setting [6]) is “lower rate of metabolite formation”; in data set [1] (individual substrates) it was “lower rate of metabolite (96B) formation”; in data set [2] (setting [6]), “lower rate of metabolite formation”; in data set [2] (individual substrates), “lower rate of metabolite (96B) formation”. The microsomal CLint at 1 μM in data set [1] (setting [5]) is 6.86 µL/min/mg; in data set [1] (individual substrates, 1 μM), 6.68 µL/min/mg; in data set [2] (setting [5]), 110 µL/min/mg; in data set [2] (individual substrates, 1 μM), 151 µL/min/mg. The half-life at 1 μM in data set [1] (setting [5]) worked out at 127 min; in data set [1] (individual substrates, 1 μM), 90.4 min; in data set [2] (setting [5]) it was 29.9 min; in data set [2] (individual substrates, 1 μM), 21.9 min.
Regarding `Cc1cnc(Cc2nc3cnc4ccc(Cl)cc4c3n2[C@@H]2CCO[C@H](C)C2)cn1` [Example 95A, 8-chloro-2-[(5-methylpyrazin-2-yl)methyl]-1-[(2R,4R)-2-methyltetrahydro-2H-pyran-4-yl]-1H-imidazo[4,5-c]quinoline], in data set [4], the IC50 is 6.06 nM. Moreover, the microsomal CLint at 1 μM came out at 14 µL/min/mg in data set [1] (setting [5]); 16 µL/min/mg in data set [1] (individual substrates, 1 μM); 193 µL/min/mg in data set [2] (setting [5]); 215 µL/min/mg in data set [2] (individual substrates, 1 μM). For the same molecule, the half-life at 1 μM in data set [1] (setting [5]) turned out to be 65.9 min; in data set [1] (individual substrates, 1 μM), 54.4 min; in data set [2] (setting [5]), 17.2 min; in data set [2] (individual substrates, 1 μM), 15.3 min. The Michaelis-Menten constant (Km) in data set [3] (setting [8]) was 15.2 µM. The Vmax in data set [3] (setting [8]) came out at 0.229 nmol/min/mg. Further, the microsomal CLint in data set [3] (pH 7.4, formation of metabolite 95 (from 95A) or 96B (from 96), human liver microsomes) was determined as 15.1 µL/min/mg.

A word on the IC50: it is the concentration that gives 50% inhibition. As usually defined, the Km is the concentration of substrate that gives half-maximal velocity. A word on the Vmax: it is the rate approached at saturating substrate.
